Here are results for 8 molecules from patent US9549556B2, “Macrocyclic picolinamides as fungicides” (DOW AGROSCIENCES LLC, priority 2013, dated 2017).

Like-named read-outs stand apart in the source and are kept apart here.

One series deals with Puccinia triticina. The series can be described thus: Wheat brown rust (PUCCRT) disease control on wheat seedlings. It counts as in vivo. The settings on record: read-out: PUCCRT disease control rating (% Control); for pest or weed control at 121.5 g/ha: 121.5 g/H, low volume (track spray) application; for pest or weed control at 100 ppm: high volume application.
In the next series the test system is Septoria tritici. Nature of the series: Leaf blotch of wheat (SEPTTR) disease control on wheat seedlings. The series is classed as in vivo, Mycosphaerella graminicola (anamorph Septoria tritici). The settings on record: Zymoseptoria tritici, read-out: SEPTTR disease control rating (% Control); for pest or weed control at 121.5 g/ha: 121.5 g/H, low volume (track spray) application; for pest or weed control at 100 ppm: high volume application. As for the experimental part:
Evaluation of Fungicidal Activity: Leaf Blotch of Wheat (Mycosphaerella graminicola; Anamorph: Septoria tritici; Bayer Code […]) Technical grades of materials were dissolved in acetone, which were then mixed with nine volumes of water containing 110 ppm Triton X-100. The fungicide solutions were applied onto wheat seedlings using an automated booth sprayer to run-off. All sprayed plants were allowed to air dry prior to further handling. All fungicides were evaluated using the aforementioned method for their activity vs. all target diseases. Wheat leaf blotch and brown rust activity were also evaluated using track spray applications, in which case the fungicides were formulated as EC formulations, containing 0.1% Trycol 5941 in the spray solutions. Wheat plants (variety Yuma) were grown from seed in a greenhouse in 50% mineral soil/50% soil-less Metro mix until the first leaf was fully emerged, with 7-10 seedlings per pot. These plants were inoculated with an aqueous spore suspension of Septoria tritici either prior to or after fungicide treatments. After inoculation the plants were kept in 100% relative humidity (one day in a dark dew chamber followed by two to three days in a lighted dew chamber at 20° C.) to permit spores to germinate and infect the leaf. The plants were then transferred to a greenhouse set at 20° C. for disease to develop. When disease symptoms were fully expressed on the 1st leaves of untreated plants, infection levels were assessed on a scale of 0 to 100 percent disease severity. Percent disease control was calculated using the ratio of disease severity on treated plants relative to untreated plants.

The subject of a further series is Leptosphaeria nodorum. The series can be described thus: Wheat glume blotch (LEPTNO) disease control. It counts as in vivo. The settings on record: 1 DP, 100 ppm.
Another series deals with Uncinula necator. Nature of the series: Grape powdery mildew (UNCINE) disease control. The series is classed as in vivo. The settings on record: 1 DP, 100 ppm.
The next series relates to Erysiphe cichoracearum. Nature of the series: Powdery mildew of cucumber (ERYSCI) disease control. It counts as in vivo. The settings on record: 1 DP, 100 ppm.
A further series relates to Cercospora beticola. The series can be described thus: Leaf spot of sugar beets (CERCBE) disease control. The series is classed as in vivo. The settings on record: 1 DP, 100 ppm, sugar beet.
Series [1] deals with Blumeria graminis f. sp. hordei. The series can be described thus: Barley powdery mildew (ERYSGH) disease control. It counts as in vivo. The settings on record: 1 DP, 100 ppm.
Another series deals with Rhyncosporium secalis. The series can be described thus: Barley scald (RHYNSE) disease control. It counts as in vivo. The settings on record: 1 DP, 100 ppm.
A further series deals with Pyricularia oryzae. The series is classed as in vivo, Magnaporthe grisea (anamorph Pyricularia oryzae). The settings on record: 1 DP, 100 ppm, rice.
The next series relates to Alternaria solani. The series can be described thus: Tomato early blight (ALTESO) disease control. It counts as in vivo. The settings on record: 1 DP, 100 ppm.
Series [2] deals with Colletotrichum lagenarium. Nature of the series: Cucumber anthracnose (COLLLA) disease control. The settings on record: 1 DP, 100 ppm. The series is classed as in vivo, Glomerella lagenarium (anamorph Colletotrichum lagenarium).

Turning to `CCCC[C@H]1[C@H](C)OC(=O)[C@@H](NC(=O)c2nccc(OC)c2OCOC(C)=O)COC[C@@H]1OCC1CC1` [Compound 6], the pest or weed control at 121.5 g/ha is greater than 70% in the series with Puccinia triticina (24 h, 1DP (1 Day Protectant)); greater than 70% with Puccinia triticina (72 h, 3DC (3 Day Curative)); greater than 70% in the series on Septoria tritici (24 h, 1DP (1 Day Protectant)); greater than 70% in the series on Septoria tritici (72 h, 3DC (3 Day Curative)). Further, the “LEPTNO disease control rating (% Control)” value in the series with Leptosphaeria nodorum is reported as “A (>70)”. Moreover, in the series with Uncinula necator, the “UNCINE disease control rating (% Control)” value is recorded as “A (>70)”. In the series with Erysiphe cichoracearum, the “ERYSCI disease control rating (% Control)” value was “A (>70)”. For the same molecule, the “CERCBE disease control rating (% Control)” value in the series on Cercospora beticola is reported as “A (>70)”. Also, in series [1], the “ERYSGH disease control rating (% Control)” value is recorded as “A (>70)”. Besides, the “RHYNSE disease control rating (% Control)” value in the series with Rhyncosporium secalis is given as “A (>70)”. Further, the “PYRIOR disease control rating (% Control)” value in the series on Pyricularia oryzae was “A (>70)”. Further, in the series on Alternaria solani, the “ALTESO disease control rating (% Control)” value is on record as “B (≦70)”. The “COLLLA disease control rating (% Control)” value in [2] is given as “A (>70)”.

On to `CCCC[C@H]1[C@H](C)OC(=O)[C@@H](NC(=O)c2nccc(OC)c2OC(C)=O)COC[C@@H]1OCC1CC1` [Compound 9], for which the pest or weed control at 121.5 g/ha with Puccinia triticina (24 h, 1DP (1 Day Protectant)) is greater than 70%; with Puccinia triticina (72 h, 3DC (3 Day Curative)), greater than 70%; with Septoria tritici (24 h, 1DP (1 Day Protectant)), greater than 70%; in the series with Septoria tritici (72 h, 3DC (3 Day Curative)), greater than 70%. In the series on Leptosphaeria nodorum, the “LEPTNO disease control rating (% Control)” value was “A (>70)”. Moreover, the “UNCINE disease control rating (% Control)” value with Uncinula necator is “A (>70)”. For the same molecule, in the series with Erysiphe cichoracearum, the “ERYSCI disease control rating (% Control)” value is reported as “B (≦70)”. For the same molecule, the “CERCBE disease control rating (% Control)” value in the series on Cercospora beticola is given as “B (≦70)”. The “ERYSGH disease control rating (% Control)” value in series [1] is reported as “B (≦70)”. For the same molecule, in the series with Rhyncosporium secalis, the “RHYNSE disease control rating (% Control)” value is on record as “A (>70)”. Besides, in the series with Pyricularia oryzae, the “PYRIOR disease control rating (% Control)” value is “B (≦70)”. Besides, the “ALTESO disease control rating (% Control)” value in the series on Alternaria solani was “B (≦70)”. The “COLLLA disease control rating (% Control)” value in [2] was “A (>70)”.

`CCCO[C@H]1COC[C@H](NC(=O)c2nccc(OC)c2O)C(=O)O[C@@H](C)[C@@H]1CCC(C)C` [Compound 53, 3-hydroxy-N-((3S,7R,8S,9S)-8-isopentyl-9-methyl-2-oxo-7-propoxy-1,5-dioxonan-3-yl)-4-methoxypicolinamide]: the melting point is 54 to 57 °C. Further, in the series with Puccinia triticina (24 h, 1DP (1 Day Protectant)), the pest or weed control at 100 ppm was greater than 70%. Also, in the series with Puccinia triticina (72 h, 3DC (3 Day Curative)), the pest or weed control at 100 ppm was greater than 70%. Further, the pest or weed control at 100 ppm with Septoria tritici (24 h, 1DP (1 Day Protectant)) was less than 70%. The pest or weed control at 100 ppm with Septoria tritici (72 h, 3DC (3 Day Curative)) is less than 70%.

`COc1ccnc(C(=O)N[C@H]2COC[C@H](OC(=O)C3CC3)[C@@H](CCC(C)C)[C@H](C)OC2=O)c1OCOC(C)=O` [Compound 57] came in with a melting point of 45 to 50 °C. Further, in the series with Puccinia triticina (24 h, 1DP (1 Day Protectant)), the pest or weed control at 121.5 g/ha was greater than 70%. Moreover, the pest or weed control at 121.5 g/ha with Puccinia triticina (72 h, 3DC (3 Day Curative)) was greater than 70%. Besides, the pest or weed control at 121.5 g/ha in the series with Septoria tritici (24 h, 1DP (1 Day Protectant)) was less than 70%. For the same molecule, in the series with Septoria tritici (72 h, 3DC (3 Day Curative)), the pest or weed control at 121.5 g/ha is greater than 70%.

In turn, `COc1ccnc(C(=O)N[C@H]2COC[C@H](Oc3ccccc3)[C@@H](CCC(C)C)[C@H](C)OC2=O)c1O` [Compound 60] showed a melting point of 58 to 62 °C. Also, in the series with Puccinia triticina (24 h, 1DP (1 Day Protectant)), the pest or weed control at 100 ppm was greater than 70%. Besides, the pest or weed control at 100 ppm in the series with Puccinia triticina (72 h, 3DC (3 Day Curative)) was greater than 70%. Also, the pest or weed control at 100 ppm in the series with Septoria tritici (24 h, 1DP (1 Day Protectant)) is greater than 70%. For the same molecule, the pest or weed control at 100 ppm in the series on Septoria tritici (72 h, 3DC (3 Day Curative)) is less than 70%.

As for `COc1ccnc(C(=O)N[C@H]2COC[C@H](OCc3ccccc3)[C@@H](CCC(C)C)[C@H](C)OC2=O)c1OC(C)=O` [Compound 67], the melting point was 55 to 61 °C. The pest or weed control at 121.5 g/ha in the series on Puccinia triticina (24 h, 1DP (1 Day Protectant)) was greater than 70%. In addition, the pest or weed control at 121.5 g/ha in the series with Puccinia triticina (72 h, 3DC (3 Day Curative)) is greater than 70%. Moreover, in the series with Septoria tritici (24 h, 1DP (1 Day Protectant)), the pest or weed control at 121.5 g/ha is greater than 70%. The pest or weed control at 121.5 g/ha in the series on Septoria tritici (72 h, 3DC (3 Day Curative)) is greater than 70%.

Molecule `COc1ccnc(C(=O)N[C@H]2COC[C@H](OCC(C)C)[C@@H](Cc3ccccc3)[C@H](C)OC2=O)c1OC(C)=O` [Compound 79] returned a melting point of 52 to 57 °C. Also, the pest or weed control at 121.5 g/ha with Puccinia triticina (24 h, 1DP (1 Day Protectant)) is greater than 70%. Further, in the series on Puccinia triticina (72 h, 3DC (3 Day Curative)), the pest or weed control at 121.5 g/ha is greater than 70%. For the same molecule, the pest or weed control at 121.5 g/ha in the series on Septoria tritici (24 h, 1DP (1 Day Protectant)) is greater than 70%. Also, the pest or weed control at 121.5 g/ha with Septoria tritici (72 h, 3DC (3 Day Curative)) is greater than 70%.

With `COc1ccnc(C(=O)N[C@H]2COC[C@H](OCC3CC3)[C@@H](Cc3ccccc3)[C@H](C)OC2=O)c1OC(C)=O` [Compound 87], the melting point was 54 to 59 °C. Besides, in the series with Puccinia triticina (24 h, 1DP (1 Day Protectant)), the pest or weed control at 100 ppm is greater than 70%. In addition, in the series with Puccinia triticina (72 h, 3DC (3 Day Curative)), the pest or weed control at 100 ppm is greater than 70%. Also, in the series with Septoria tritici (24 h, 1DP (1 Day Protectant)), the pest or weed control at 100 ppm is greater than 70%. Moreover, in the series with Septoria tritici (72 h, 3DC (3 Day Curative)), the pest or weed control at 100 ppm was greater than 70%.

For orientation: melting point means the temperature of the solid-liquid transition.
